Common to all, as to format: cell-based
Assay [1] relates to EGFR Del19/T790M/C797S (H1975-clone #28). The experiment in a line: EGFR degradation HTRF assay, H1975-clone #28 DTC cells. The method, boiled down:
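Lentiviral Del19/T790M/C797S (clone #28) or Del19/C797S (clone #23) EGFR expressed in H1975 with endogenous EGFR knocked out. Cells treated 16 h, 37 °C, 8 doses, 5-fold from 10 uM top, 0.2% DMSO; EGFR read by HTRF after lysis. Degradation % vs DMSO control; DC50, Dmax from four-parameter fit.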
A general note: Time-resolved FRET reads energy transfer from a long-lived donor to a nearby acceptor.

Assay [2] addresses T1, EGFR L858R/C797S (BaF3 LC cells) (Homo sapiens, UniProt P00533, C797S/L858R).
T1 construct: expressed in transfected cells; host or cells: BaF3
The experiment in a line: EGFR degradation HTRF assay, BaF3 LC cells.

Assay [3] relates to EGFR Del19/C797S (H1975-clone #23). The assay can be described thus: EGFR degradation HTRF assay, H1975-clone #23 DC cells. Particulars: for H1975 #23 DC Dmax (%): maximum percentage of degradation. The procedure: H1975-clone #28(Del19/T790M/C797S) and H1975-clone #23(Del19/C797S). EGFR-Del19/T790M/C797S and EGFR-Del19/C797S were stably expressed in H1975 cell lines by lentivirus-mediated over-expression, respectively. The EGFR over-expressed cells then underwent gene knockout, in which the EGFR targeting sgRNA was designed to only target the endogenous EGFR copies and preserve the exogenous EGFR copies. Followed by the gene knockout, the edited H1975 cells were seeded in 96 well plates at the concentration of 1 cell/well, cultured for about 2 weeks to allow single clones formation. The formed clones were screened by DNA sequencing and whole exon sequencing analysis for the desired edition. H1975-clone #28 and H1975-clone #23 were finally confirmed as homozygous Del19/T790M/C797S EGFR and Del19/C797S EGFR clones, respectively.
BaF3 WT(wild type), BaF3-LTC(L858R/T790M/C797S) and BaF3-DTC(Del19/T790M/C797S) cells are treated with compounds diluted in 0.2% DMSO cell culture medium and incubate for 16h, 37° C., 5% CO2, H1975-#36, H1975-#28, H1975-#23 and HCC827 cells are treated with compounds diluted in 0.2% DMSO cell culture medium on day 2, incubate for 16h, 37° C., 5% CO2.the final concentriation of compounds in all assay is start with 10 uM, 5-fold dilution, total 8 doses were included.
After 16h treatment, add HTRF lysis buffer to each well; seal the plate and incubate 1 hour at room temperature on a plate shaker; Once the cells are lysed, 16 μL of cell lysate are transferred to a PE 384-well HTRF detection plate; 4 μL of pre-mixed HTRF antibodies are added to each well; Cover the plate with a plate sealer, spin 1000 rpm for 1 min, Incubate overnight at room temperature; Read on BMG PheraStar with HTRF protocol (337 nm-665 nm-620 nm).
The inhibition (degradation) percentage of the compound was calculated by the following equation: Inhibition percentage of Compound=100-100×(Signal-low control)/(High control-low control), wherein signal=each test compound group
High control=Cell group with added DMSO and without compound, indicating microplate readings without EGFR degradation;
Dmax is the maximum percentage of inhibition (degradation).
The IC50 (DC50) value of a compound can be obtained by fitting the following equation
Y=Bottom+(TOP−Bottom)/(1+((IC50/X)^hillslope))
Wherein, X and Y are known values, and IC50, Hillslope, Top and Bottom are the parameters obtained by fitting with software. Y is the inhibition percentage (calculated from the equation), X is the concentration of the compound; IC50 is the concentration of the compound when the 50% inhibition is reached. The smaller the IC50 value is, the stronger the inhibitory ability of the compound is. Vice versa, the higher the IC50 value is, the weaker the inhibitory ability of the compound is; Hillslope represents the slope of the fitted curve, generally around 1*; Bottom represents the minimum value of the curve obtained by data fitting, which is generally 0%±20%; Top represents the maximum value of the curve obtained by data fitting, which is generally 100%±20%. The experimental data were fitted by calculating and analyzing with Dotmatics data analysis software.

Assay [4] addresses T2, EGFR L858R/T790M/C797S (BaF3-LTC cells) (Homo sapiens, UniProt P00533, C797S/L858R/T790M).
T2 construct: expressed in transfected cells; host or cells: BaF3
The assay can be described thus: EGFR degradation HTRF assay, BaF3-LTC cells. The method, boiled down:
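EGFR remaining after a 16 h, 37 °C exposure (8 doses, 5-fold steps from 10 uM final, 0.2% DMSO) was quantified by HTRF antibodies in cell lysate. Percent inhibition relative to DMSO control was fitted by four-parameter logistic to give DC50; Dmax denotes maximal degradation.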

The mark [5] stands for this setting: H1975 # 28 DTC cells; maximum percentage of inhibition (degradation).
The mark [6] stands for this setting: H1975 # 28 DTC cells; EGFR degradation, IC50 (DC50) from curve fit; read-out: DC50(nM) H1975 # 28 DTC.
Setting [7] is: BaF3 LC, 16h treatment; read-out: BaF3 LC DC50.
Where [8] appears, read: H1975 #23 DC, 16h treatment, read-out: H1975 #23 DC DC50.
[9] abbreviates: BaF3-LTC cells; EGFR degradation, IC50 (DC50) from curve fit; read-out: DC50(nM) BaF3-LTC.

Read-outs that look alike come from different tables or passages of the source.

T2 sequence (P00533 25-1210 T790M/C797S/L858R): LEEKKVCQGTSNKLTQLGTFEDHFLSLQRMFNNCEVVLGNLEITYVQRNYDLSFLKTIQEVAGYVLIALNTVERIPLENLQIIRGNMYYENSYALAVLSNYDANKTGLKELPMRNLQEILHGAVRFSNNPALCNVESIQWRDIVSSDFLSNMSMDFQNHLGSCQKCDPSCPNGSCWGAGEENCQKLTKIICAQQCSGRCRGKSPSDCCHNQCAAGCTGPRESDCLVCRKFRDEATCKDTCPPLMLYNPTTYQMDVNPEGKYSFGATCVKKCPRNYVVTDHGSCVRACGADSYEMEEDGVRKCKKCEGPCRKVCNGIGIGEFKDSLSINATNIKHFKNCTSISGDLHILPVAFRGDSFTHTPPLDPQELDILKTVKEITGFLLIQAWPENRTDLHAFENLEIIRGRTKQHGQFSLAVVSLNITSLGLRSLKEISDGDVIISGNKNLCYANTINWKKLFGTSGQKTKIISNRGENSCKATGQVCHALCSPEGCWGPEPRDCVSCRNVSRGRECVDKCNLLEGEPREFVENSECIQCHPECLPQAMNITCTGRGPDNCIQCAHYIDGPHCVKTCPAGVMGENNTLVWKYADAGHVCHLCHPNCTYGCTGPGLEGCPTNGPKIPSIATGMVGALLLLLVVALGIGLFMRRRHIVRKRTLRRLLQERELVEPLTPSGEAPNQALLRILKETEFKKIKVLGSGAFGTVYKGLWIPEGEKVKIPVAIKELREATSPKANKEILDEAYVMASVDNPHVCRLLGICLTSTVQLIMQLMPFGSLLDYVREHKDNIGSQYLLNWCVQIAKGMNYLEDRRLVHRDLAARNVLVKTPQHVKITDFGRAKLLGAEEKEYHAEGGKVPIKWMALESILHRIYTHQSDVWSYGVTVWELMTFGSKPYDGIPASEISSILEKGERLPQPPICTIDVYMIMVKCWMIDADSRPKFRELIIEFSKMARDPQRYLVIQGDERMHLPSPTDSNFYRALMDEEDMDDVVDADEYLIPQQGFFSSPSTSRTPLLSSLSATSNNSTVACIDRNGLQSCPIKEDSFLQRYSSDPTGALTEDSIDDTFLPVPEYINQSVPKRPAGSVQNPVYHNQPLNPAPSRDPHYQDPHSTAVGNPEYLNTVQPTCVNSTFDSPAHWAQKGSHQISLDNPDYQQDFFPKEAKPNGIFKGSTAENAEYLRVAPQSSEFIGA
T1 sequence (P00533 25-1210 C797S/L858R): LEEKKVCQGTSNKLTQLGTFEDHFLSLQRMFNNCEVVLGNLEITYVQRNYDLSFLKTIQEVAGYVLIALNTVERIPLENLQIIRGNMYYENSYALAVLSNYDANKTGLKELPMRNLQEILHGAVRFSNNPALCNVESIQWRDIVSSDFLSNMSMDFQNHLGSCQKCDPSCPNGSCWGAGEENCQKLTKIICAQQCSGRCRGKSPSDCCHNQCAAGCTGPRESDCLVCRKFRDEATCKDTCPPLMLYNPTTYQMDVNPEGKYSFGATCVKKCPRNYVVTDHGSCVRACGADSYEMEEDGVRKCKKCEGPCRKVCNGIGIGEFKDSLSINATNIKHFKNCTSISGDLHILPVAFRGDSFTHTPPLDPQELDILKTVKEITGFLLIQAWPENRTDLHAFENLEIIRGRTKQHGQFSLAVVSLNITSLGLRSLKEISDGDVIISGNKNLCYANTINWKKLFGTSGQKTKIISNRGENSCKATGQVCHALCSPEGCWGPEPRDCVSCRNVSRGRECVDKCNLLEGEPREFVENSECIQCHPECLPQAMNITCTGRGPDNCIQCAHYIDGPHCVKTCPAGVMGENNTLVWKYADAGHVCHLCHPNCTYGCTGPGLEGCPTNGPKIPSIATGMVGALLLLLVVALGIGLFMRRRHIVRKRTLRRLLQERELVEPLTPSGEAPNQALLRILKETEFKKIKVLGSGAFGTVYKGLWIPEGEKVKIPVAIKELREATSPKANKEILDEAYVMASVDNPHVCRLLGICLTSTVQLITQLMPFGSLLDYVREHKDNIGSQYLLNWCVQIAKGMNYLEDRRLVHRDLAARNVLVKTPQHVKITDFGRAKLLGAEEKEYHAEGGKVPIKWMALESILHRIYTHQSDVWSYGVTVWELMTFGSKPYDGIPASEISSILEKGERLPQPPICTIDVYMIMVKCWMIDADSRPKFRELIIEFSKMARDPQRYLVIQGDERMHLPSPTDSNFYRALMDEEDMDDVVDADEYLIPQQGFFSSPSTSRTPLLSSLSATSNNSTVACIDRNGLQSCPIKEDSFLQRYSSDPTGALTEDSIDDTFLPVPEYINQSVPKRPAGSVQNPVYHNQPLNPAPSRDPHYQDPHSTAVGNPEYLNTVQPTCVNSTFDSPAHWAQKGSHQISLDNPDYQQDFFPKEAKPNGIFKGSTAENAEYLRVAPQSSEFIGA

A word on the DC50: it is the concentration at which degradation of the target reaches its halfway point. As a reminder, the Dmax is the greatest extent of degradation seen. `CCc1ccc2c(P(C)(C)=O)c(Nc3nc(Nc4cc(CC)c(N5CCC(N6CCN(C(=O)C7CN(c8cccc9c8oc(=O)n9C8CCC(=O)NC8=O)C7)CC6)CC5)cc4OC)ncc3Br)ccc2n1` (stereo not drawn) [Example 446, 3-(7-(3-(4-(1-(4-((5-bromo-4-((5-(dimethylphosphoryl)-2-ethylquinolin-6-yl)amino)pyrimidin-2-yl)amino)-2-ethyl-5-methoxyphenyl)piperidin-4-yl)piperazine-1-carbonyl)azetidin-1-yl)-2-oxobenzo[d]oxazol-3(2H)-yl)piperidine-2,6-dione]: the “Dmax (%) H1975 # 28 DTC” value in assay [1] (setting [5]) was 80.48%. The DC50 in assay [1] (read-out: DC50(nM) H1975 # 28 DTC; H1975 # 28 DTC cells; EGFR degradation, IC50 (DC50) from curve fit) came to 0.726 nM; in assay [2] (read-out: BaF3 LC DC50; BaF3 LC, 16h treatment) it was 5.87 nM; in assay [3] (read-out: H1975 #23 DC DC50, 16h treatment), 0.616 nM; in assay [4] (read-out: DC50(nM) BaF3-LTC; BaF3-LTC cells; EGFR degradation, IC50 (DC50) from curve fit) it was 3.89 nM. Besides, the maximal degradation (Dmax) in assay [2] (BaF3, read-out: BaF3 LC Dmax (%)) came to 81.7%; in assay [4] (read-out: Dmax (%) BaF3-LTC, BaF3-LTC cells; maximum percentage of inhibition (degradation)), 96.4%. Also, in assay [3] (16h treatment), the “H1975 #23 DC Dmax (%)” value is recorded as 59.25%.
For `CCOc1cc(N2CCC(N3CCN(CCc4cccc5c4oc(=O)n5C4CCC(=O)NC4=O)CC3)CC2)c(CC)cc1Nc1ncc(Br)c(Nc2ccc3c(=O)n(CC)ncc3c2P(C)(C)=O)n1` (stereo not drawn) [Example 455, 3-(7-(2-(4-(1-(4-((5-bromo-4-((5-(dimethylphosphoryl)-2-ethyl-1-oxo-1,2-dihydrophthalazin-6-yl)amino)pyrimidin-2-yl)amino)-5-ethoxy-2-ethylphenyl)piperidin-4-y)piperazin-1-yl)ethyl)-2-oxobenzo[d]oxazol-3(2H)-yl)piperidine-2,6-dione], the half-maximal degradation concentration (DC50) amounted to 0.47 nM in assay [1] (setting [6]), 121 nM in assay [2] (setting [7]), 2.31 nM in assay [3] (setting [8]) and 3.83 nM in assay [4] (setting [9]). Also, the “Dmax (%) H1975 # 28 DTC” value in assay [1] (setting [5]) came out at 79.19%. Further, the “BaF3 LC Dmax (%)” value in assay [2] (BaF3 LC, 16h treatment, maximum percentage of degradation) came out at 77.76%. Further, the “H1975 #23 DC Dmax (%)” value in assay [3] (16h treatment) amounted to 77.73%. The “Dmax (%) BaF3-LTC” value in assay [4] (BaF3-LTC cells; maximum percentage of inhibition (degradation)) was 87.13%.
Regarding `CCc1ccc2c(P(C)(C)=O)c(Nc3nc(Nc4cc(CC)c(N5CCC(N6CCN(CCc7ccc8c(oc(=O)n8C8CCC(=O)NC8=O)c7F)CC6)CC5)cc4OC)ncc3Br)ccc2n1` (stereo not drawn) [Example 458, 3-(6-(2-(4-(1-(4-((5-bromo-4-((5-(dimethylphosphoryl)-2-ethylquinolin-6-yl)amino)pyrimidin-2-yl)amino)-2-ethyl-5-methoxyphenyl)piperidin-4-yl)piperazin-1-yl)ethyl)-7-fluoro-2-oxobenzo[d]oxazol-3(2H)-yl)piperidine-2,6-dione], the DC50 in assay [1] (setting [6]) turned out to be 0.505 nM; in assay [2] (setting [7]), 3.29 nM; in assay [3] (setting [8]), 3.26 nM; in assay [4] (setting [9]), 2.09 nM. Besides, in assay [1] (setting [5]), the “Dmax (%) H1975 # 28 DTC” value is 83.62%. Moreover, the Dmax in assay [2] (BaF3 LC, 16h treatment, maximum percentage of degradation; read-out: BaF3 LC Dmax (%)) came out at 91.5%; in assay [4] (BaF3-LTC cells; maximum percentage of inhibition (degradation); read-out: Dmax (%) BaF3-LTC), 88.3%. Moreover, the “H1975 #23 DC Dmax (%)” value in assay [3] (16h treatment) is given as 59.65%.
Turning to `CCOc1cc(N2CCC(N3CCN(CCc4cc(F)c([C@H]5CCC(=O)NC5=O)c(F)c4)CC3)CC2)c(CC)cc1Nc1ncc(Br)c(Nc2ccc3nc(CC)ncc3c2P(C)(C)=O)n1` [Example 460, (R)-3-(4-(2-(4-(1-(4-((5-bromo-4-((5-(dimethylphosphoryl)-2-ethylquinazolin-6-yl)amino)pyrimidin-2-yl)amino)-5-ethoxy-2-ethylphenyl)piperidin-4-yl)piperazin-1-yl)ethyl)-2,6-difluorophenyl)piperidine-2,6-dione], the half-maximal degradation concentration (DC50) in assay [1] (setting [6]) is 2.43 nM; in assay [2] (setting [7]), 37.3 nM; in assay [3] (setting [8]), 3.11 nM; in assay [4] (setting [9]), 16.4 nM. In assay [1] (setting [5]), the “Dmax (%) H1975 # 28 DTC” value turned out to be 86%. Also, the “H1975 #23 DC Dmax (%)” value in assay [3] (16h treatment) is 82.75%.
